Reference: US6239171A, “Tocotrienols and tocotrienol-like compounds and methods for their use” (Lipogenics, Inc., priority 1998, dated 2001)

How the values were obtained:
[1] = target: T1, HMG-CoA reductase (Sus scrofa, UniProt Q1W675); test: Hepatic HMG-CoA reductase activity in hypercholesterolemic swine; type: in vivo; settings: control diet + 50 ppm
T1 construct: The hepatic enzymatic activity of the HMG-CoA reductase decreased approximately 30%; from tissue; host or cells: pig liver, microsomes
T1 sequence (Q1W675 1-885): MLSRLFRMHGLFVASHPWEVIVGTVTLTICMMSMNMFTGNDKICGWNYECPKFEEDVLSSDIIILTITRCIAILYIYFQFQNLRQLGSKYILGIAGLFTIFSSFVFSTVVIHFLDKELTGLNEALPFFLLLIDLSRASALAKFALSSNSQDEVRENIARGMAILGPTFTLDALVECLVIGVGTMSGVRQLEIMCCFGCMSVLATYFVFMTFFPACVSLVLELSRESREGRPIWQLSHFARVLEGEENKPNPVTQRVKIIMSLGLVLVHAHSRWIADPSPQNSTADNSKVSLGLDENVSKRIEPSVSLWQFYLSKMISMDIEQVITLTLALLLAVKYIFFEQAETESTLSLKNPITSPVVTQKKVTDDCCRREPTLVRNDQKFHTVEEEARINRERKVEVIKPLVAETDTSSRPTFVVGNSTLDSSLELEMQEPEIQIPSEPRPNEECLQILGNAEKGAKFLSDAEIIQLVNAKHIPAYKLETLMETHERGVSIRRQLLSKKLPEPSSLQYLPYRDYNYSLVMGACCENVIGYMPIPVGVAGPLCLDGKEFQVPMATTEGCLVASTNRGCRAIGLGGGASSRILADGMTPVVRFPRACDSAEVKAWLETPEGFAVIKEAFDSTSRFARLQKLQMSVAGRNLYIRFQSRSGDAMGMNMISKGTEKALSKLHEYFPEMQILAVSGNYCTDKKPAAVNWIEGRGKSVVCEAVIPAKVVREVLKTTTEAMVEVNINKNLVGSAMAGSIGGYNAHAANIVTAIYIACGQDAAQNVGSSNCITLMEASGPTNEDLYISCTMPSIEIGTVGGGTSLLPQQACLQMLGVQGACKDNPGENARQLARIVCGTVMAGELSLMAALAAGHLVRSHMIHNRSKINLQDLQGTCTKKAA
From the text: All assays conducted on chicken or swine serum were done following the protocols described in A. A. Qureshi et al., "Lowering Of Serum Cholesterol In Hypercholesterolemic Humans By Tocotrienols" (Palmvitee), Am. J. Clin. Nutr., 53, pp. 1021S-26S (1991). All enzymatic assays were done following the protocols described in A. A. Qureshi et al., "Effects of Cereals and Culture Filtrate of Trichoderma viride on Lipid Metabolism of Swine", Lipids, 17, pp. 924 (1982). Plasma insulin, glucagon and TNF levels were measured using radioinnumoassay kits from Ventrex Laboratories, Inc. (Portland, Me.), ICN Biomedicals, Inc. (Costa Mesa, Calif.) and Genzyme Corp. (Cambridge, Mass.), respectively.
We next measured the effects of various tocotrienols from rice bran on HMG-CoA reductase and cholesterol 7α-hydroxylase in hypercholesterolemic swine. Since pigs are very similar to humans in their cholesterol metabolism, they provide a useful model from which to study hypercholesterolemia and related diseases. […] The serum cholesterol concentration in these swine is typically above 300-500 mg/dl, as compared to 120-160 mg/dl in normal adult swine. As a result, the pigs develop complicated atherosclerotic plaques that closely resemble advanced atherosclerotic lesions found in humans.
(§1) Each group of three 5-month old swine was administered either a control diet or a control diet supplemented with 50 ppm of TRF or 50 ppm of an individual tocotrienol. The samples were prepared as described in Example 11. After a 12 hour fast, serum and plasma samples were taken a 0 hrs, 21 days and 42 days from the start of the feeding period. After taking serum and plasma samples from the pigs at the end of the 42 day period, all of the swine were fasted for a total of 40 hours, followed by a 48 hour refeeding period. One swine from each group was sacrificed at that time and the liver, intestine, lung, heart, loin muscle, adipose tissue and ham muscle were removed.

[2] = test system: hypercholesterolemic swine; test: Serum cholesterol, apolipoproteins, triglycerides, glucose, insulin and glucagon in hypercholesterolemic swine; type: in vivo
Experimental: All assays conducted on chicken or swine serum were done following the protocols described in A. A. Qureshi et al., "Lowering Of Serum Cholesterol In Hypercholesterolemic Humans By Tocotrienols" (Palmvitee), Am. […] Plasma insulin, glucagon and TNF levels were measured using radioinnumoassay kits from Ventrex Laboratories, Inc. (Portland, Me.), ICN Biomedicals, Inc. (Costa Mesa, Calif.) and Genzyme Corp. (Cambridge, Mass.), respectively.
We next measured the effects of various tocotrienols from rice bran on HMG-CoA reductase and cholesterol 7α-hydroxylase in hypercholesterolemic swine. Since pigs are very similar to humans in their cholesterol metabolism, they provide a useful model from which to study hypercholesterolemia and related diseases. […] As a result, the pigs develop complicated atherosclerotic plaques that closely resemble advanced atherosclerotic lesions found in humans.
as §1, with “The samples were prepared as described in Example 11.” left out
The experimental conditions were the same, except that the two remaining swine in each group were transferred to the unsupplemented control diet following the 42 day feeding period. After an additional 70 days, serum and plasma samples were collected from these swine after a 12 hour fast for testing.

[3] = 70 days on control diet after 42 days at 50 ppm

## CC(C)=CCC/C(C)=C/CC/C(C)=C/CCC1(C)CCc2cc(O)ccc2O1 (stereo not drawn) [P21, 3,4-dihydro-2-methyl-2-(4,8,12-trimethyltrideca-3' (E),7'(E),11'-trienyl)-2H-1-benzopyran-6-ol]
[1]; 21 days
  HMG-CoA REDUCTASE: 304.23 pg/min/mg of microsomes
  HMG-CoA REDUCTASE, percentage of 0-time value: 89.38%
[1]; 42 days
  HMG-CoA REDUCTASE: 275.75 pg/min/mg of microsomes
  HMG-CoA REDUCTASE, Percentage of Control Activity: 73.59%
  HMG-CoA REDUCTASE, percentage of 0-time value: 81.02%
[2]; [3]
  HDL-CHOLESTEROL CONCENTRATION IN SERUM: 31.15 mg/100 ml
  HDL-CHOLESTEROL, Percentage of Control Activity: 103.50%
  HDL-CHOLESTEROL, percentage of baseline value: 135.72%
  HDL:LDL CHOLESTEROL, Percentage of Control Activity: 83.83%
  LDL-CHOLESTEROL CONCENTRATION IN SERUM: 227.82 mg/100 ml
  LDL-CHOLESTEROL, Percentage of Control Activity: 88.02%
  LDL-CHOLESTEROL, percentage of baseline value: 125.11%
  TOTAL CHOLESTEROL CONCENTRATION IN SERUM: 276.23 mg/100 ml
  TOTAL CHOLESTEROL, Percentage of Control Activity: 76.20%
  TOTAL CHOLESTEROL, percentage of baseline value: 125.39%
[2]; control diet + 50 ppm, 6 weeks
  Apo A1, percentage of control: 104.01%
  Apo A1 concentration in serum: 26.72 ± 1.14 mg/100 ml
  Apo B concentration in serum: 111.78 ± 1.80 mg/100 ml
  Apo B, percentage of control: 75.64%
  Triglycerides concentration in serum: 64.44 mg/100 ml
  Triglycerides, percentage of control: 84.17%
[2]; control diet + 50 ppm, 21 days
  HDL-CHOLESTEROL CONCENTRATION IN SERUM: 26.23 mg/100 ml
  HDL-CHOLESTEROL, percentage of baseline value: 114.29%
  HDL:LDL CHOLESTEROL, percentage of baseline value: 93.32%
  LDL-CHOLESTEROL CONCENTRATION IN SERUM: 194.17 mg/100 ml
  LDL-CHOLESTEROL, percentage of baseline value: 106.63%
  TOTAL CHOLESTEROL CONCENTRATION IN SERUM: 236.40 mg/100 ml
  TOTAL CHOLESTEROL, percentage of baseline value: 107.20%
[2]; control diet + 50 ppm, 42 days
  Glucagon: 278.36 pg/mL
  Glucagon, percentage of control: 84.25%
  Glucose: 72.63 mg/100 ml
  Glucose, percentage of control: 75.66%
  HDL-CHOLESTEROL CONCENTRATION IN SERUM: 30.74 mg/100 ml
  HDL-CHOLESTEROL, Percentage of Control Activity: 113.90%
  HDL-CHOLESTEROL, percentage of baseline value: 133.94%
  HDL:LDL CHOLESTEROL, Percentage of Control Activity: 57.82%
  HDL:LDL CHOLESTEROL, percentage of baseline value: 81.59%
  Insulin: 21.4 µU/mL
  Insulin, percentage of control: 104.63%
  LDL-CHOLESTEROL CONCENTRATION IN SERUM: 198.76 mg/100 ml
  LDL-CHOLESTEROL, Percentage of Control Activity: 66.53%
  LDL-CHOLESTEROL, percentage of baseline value: 109.15%
  TOTAL CHOLESTEROL CONCENTRATION IN SERUM: 238.17 mg/100 ml
  TOTAL CHOLESTEROL, Percentage of Control Activity: 68.90%
  TOTAL CHOLESTEROL, percentage of baseline value: 108.20%
